Reference: patent publication US5089479A, “Adhesion of Mycoplasma pneumoniae and Mycoplasma hominus to sulfatide” (priority 1988, dated 1992)
Entries after “also recorded” stand apart in the source; their conditions may differ. Counter-ions that a name gives are not always drawn.

How the values were obtained:
[1] = system: M. pneumoniae; assay: Solid-phase binding of [3H]-M. pneumoniae to purified glycolipids immobilized in microtiter plates; set-up: species or system Mycoplasma pneumoniae strain M129; settings: microtiter plate; up to 10 μg per well
Protocol: (§1) Virulent M. pneumoniae strain M129, passage 5-15, were grown and metabolically labelled with [^3 H]palmitic acid, 12-17 Ci/mole, as described by Chandler et al. in Infect. Immun. 37: 942, 1982. The organisms were passed four times through a 26 gauge needle and suspended to approximately 10^7 cpm/ml of degassed RPMI 1640 medium containing 1% bovine serum albumin and 25 mM HEPES, pH 7.3.
(§2) The binding of M. pneumoniae to purified glycolipids immobilized in microtiter plates was measured as described by Krivan et al. in Proc. Natl. Acad. Sci., op. cit. Purified glycolipids were serially diluted in 25 μl of methanol containing 0.1 μg each of the auxiliary lipids cholesterol and phosphatidylcholine. After the solutions were dried by evaporation, the wells were filled with TBS-BSA, emptied after one hour, rinsed with RPMI-BSA, and incubated with 25 μl of [^3 H]-M. pneumoniae, approximately 10^7 cpm/ml RPMI-BSA. After incubation for two hours at 37° C., unless otherwise stated, the wells were washed five times with saline and bound M. pneumoniae was quantified by scintillation counting in Aquasol. For inhibition studies, various polysaccharides were serially diluted in […] of [^3 H]-M. pneumoniae.
To obtain the results shown in FIG. 2, lipids in […] each of the auxiliary lipids cholesterol and phosphatidylcholine were evaporated in flat bottom wells of polyvinylchloride microtiter plates. The wells were blocked with 1% albumin for one hour, washed twice with RPMI-BSA, and incubated at 25° C. with 25 μl of [^3 H]-M. pneumoniae, approximately […]. After two hours, the wells were washed five times with saline, cut from the plate, and bound radioactivity was quantified in a scintillation counter. In control experiments, organisms were incubated with auxiliary lipids only to correct for nonspecific binding, typically <1% of the total radioactivity added. M. pneumoniae binding was determined in RPMI-BSA for sulfatide ( .circle. ), lactosylceramide, paragloboside, and cholesterol sulfate, ceramide trihexoside, globoside, GM1, GM2, or GM3 ( .largecircle.).
Binding of [^3 H]-M. pneumoniae was determined in RPMI-BSA for two hours at 4° C., 25° C. ( .circle. ), 37° C., and at 37° C. in BSA without RPMI (Δ).

[2] = system: M. pneumoniae; assay: Mycoplasma overlay assay: binding of [3H]-M. pneumoniae to glycolipids on thin layer chromatograms; set-up: species or system Mycoplasma pneumoniae strain M129; settings: for binding of M. pneumoniae to glycolipid (in words): thin layer chromatogram overlay; for Binding (ability to bind M. pneumoniae): Table I, class by amount of lipid bound
Protocol: as §1
M. pneumoniae were bound to glycolipids separated on thin-layer chromatograms as described in detail for other bacteria by Krivan et al., Proc. Natl. Acad. Sci. 85: 6157-6161, 1988, and Krivan et al., Arch. Biochem. Biophys. 260:493-496, 1988. Briefly, glycolipids were separated by thin-layer chromatography on aluminum-backed silica gel high-performance plates developed with chlooform:methanol:0.25% CaCl2 in water (60:35:8). After chromatography, the plates were coated with 0.1% polyisobutylmethacrylate, soaked in 0.05 M Tris-HCl, pH 7.6, containing […] sodium chloride, 5 mM CaCl2, 0.2 mM phenylmethane-sulfonyl fluoride, and 1% bovine serum albumin (TBS-BSA) and incubated for three hours at 25° C. with 60 μl/cm^2 of [^3 H]-labelled M. pneumoniae, approximately 10^7 cpm/ml of RPMI-BSA. The plates were gently washed five times in 0.01 M sodium phosphate, pH 7.2, containing 0.15 M sodium chloride (PBS) to remove unbound organisms, dried, and exposed for 24 hours to Ultrofilm ^3 H (2208-190) high speed film.
To obtain the results shown in FIG. 1, glycolipids were chromatographed on aluminum-backed silica gel HPTLC plates developed in chloroform/methanol/0.25% CaCl2 in water, 60:35:8. The plates were coated with plastic, soaked in Tris-BSA, and incubated for three hours at 25° C. with [^3 H]-palmitate-labelled M. pneumoniae suspended in RPMI 1640 containing 1% BSA and 25 mM HEPES, pH 7.3, as described above (Panel A), or sprayed with orcinol reagent to identify glycolipids (Panel B). Lane a, acidic glycolipid standards sulfatide (0.5 μg), GM3 (2 μg), GM2 (2 μg), GD1a (2 μg), GD1b (2 μg), GT1b (2 μg); lane b, neutral standards galactosyl ceramide (4 μg), lactosylceramide (4 μg), globotriaosylceramide (2 μg), c2(0.5 μg). and c3 (o.1 μg); lane d, seminolipid (2 μg); lane e, cholesterol 3 -sulfate (2 μg); lane f, human trachea acidic glycolipids from 100 mg wet weight […]; lane h, α2-3sialylparagloboside (2 μg); lane 1, I-active monosialylganglioside from bovine erythrocytes (2 μg).

[3] = system: M. pneumoniae; assay: M. pneumoniae adhesion to immobilized glycoproteins adsorbed on plastic; format: binding, Mycoplasma pneumoniae strain M129; settings: for M. pneumoniae adhesion to immobilized glycoprotein (in words): adsorbed on plastic; for amount of glycoprotein coated that promotes adhesion: coated wells; for Relative binding activity: relative to fetuin = 1.0, from amount for half maximal binding, mean of 2 or 3 experiments
Protocol: Glycoproteins dissolved in 0.01 M sodium phosphate buffer, pH 7.4, containing 150 mM NaCl, 1 mM CaCl2, and 0.01% NaN3 were adsorbed onto plastic polyvinylchloride […] microtiter plates by incubation for 16 hours at 4° C. The unbound proteins were removed, and the wells were filled with tris-BSA and incubated for 30 minutes at room temperature. The wells were rinsed with RPMI1640 containing 25 mM HEPES, pH 7.3, and 1% bovine serum albumin. M. pneumoniae strain M129 labelled with [^3 H]-palmitate were dispersed in RPMI-BSA by passing four times through a 26 gauge needle, and 50 μl of the suspension was applied to the wells. After incubation for 60 minutes at 37° C., the wells were washed five times with saline and the labelled M. pneumoniae bound to the proteins were quantified by scintillation counting in Aquasol. […]

[4] = system: M. pneumoniae binding to sulfatide; assay: Inhibition of M. pneumoniae binding to sulfatide adsorbed on plastic; set-up: species or system Mycoplasma pneumoniae strain M129; settings: for inhibition of binding to sulfatide at 100 μg/ml (in words): sulfatide in microtiter plates
Protocol: as §1, §2
To obtain the results shown in FIG. 4, polysaccharides were serially diluted in 25 μl of RPMI-BSA in microtiter wells previously coated with 1 μg of purified sulfatide. Binding was determined after incubation of two hours at 37° C. with 25 μl of [^3 H]-M. pneumoniae with the indicated concentration of dextran ( .circle. ) or dextran sulfate.

Molecule: CC(C)CCC[C@@H](C)[C@H]1CC[C@H]2[C@@H]3CC=C4C[C@@H](OS(=O)(=O)O)CC[C@]4(C)[C@H]3CC[C@]12C [cholesterol sulfate, cholesterol 3 -sulfate]
- binding of M. pneumoniae to immobilized lipid (in words) [1]: no binding was detected
- binding of M. pneumoniae to glycolipid (in words) [2]: does not bind

Molecule: Alpha2-3-sialylparagloboside (NeuGc)
- Binding (ability to bind M. pneumoniae) [2]: - (no binding to 4 μg of lipid)

Molecule: Asialo GM1
- Binding (ability to bind M. pneumoniae) [2]: - (no binding to 4 μg of lipid)

Molecule: Bovine Fetuin: major protein in fetal calf serum
- M. pneumoniae adhesion to immobilized glycoprotein (in words) [3]: promote dose-dependent and saturable adhesion
- amount of glycoprotein coated that promotes adhesion [3]: less than 10 ng
- Relative binding activity [3]: 1.0

Molecule: Bovine serum Albumin: protein
- Relative binding activity [3]: < 0.01

Molecule: GD1^b
- Binding (ability to bind M. pneumoniae) [2]: - (no binding to 4 μg of lipid)
- binding of M. pneumoniae to glycolipid (in words) [2]: No binding was detected

Molecule: GD1a
- Binding (ability to bind M. pneumoniae) [2]: - (no binding to 4 μg of lipid)
- binding of M. pneumoniae to glycolipid (in words) [2]: No binding was detected

Molecule: GT1b
- Binding (ability to bind M. pneumoniae) [2]: - (no binding to 4 μg of lipid)
- binding of M. pneumoniae to glycolipid (in words) [2]: No binding was detected

Molecule: Galactosyl ceramide-I6-sulfate [Sulfatide Gal(6SO4)β11Cer]
- Binding (ability to bind M. pneumoniae) [2]: +++ (positive binding to less than 0.5 μg)
- binding of M. pneumoniae to glycolipid (in words) ([2]; listed as 6-sulfate isomer): does not discriminate between galactosyl ceramide I^3 -sulfate and its unnatural 6-sulfate isomer
- binding of M. pneumoniae to glycolipid (in words) ([2]; listed as isomer of sulfatide in which the terminal sulfate is linked to the 6-position of): bound

Molecule: Human Transferrin: protein
- M. pneumoniae adhesion to immobilized glycoprotein (in words) [3]: no binding of M. pneumoniae was detected
- Relative binding activity [3]: < 0.01

Molecule: Human platelet thrombospondin: adhesive glycoprotein
- M. pneumoniae adhesion to immobilized glycoprotein (in words) [3]: strongly promote adhesion
- amount of glycoprotein coated that promotes adhesion [3]: less than 10 ng
- Relative binding activity [3]: 0.7

Molecule: IV^3 -[3'SO3 GlcA]- nLcOse4Cer [SO4 -Glucuronosylparagloboside]
- Binding (ability to bind M. pneumoniae) [2]: - (no binding to 4 μg of lipid)
- binding of M. pneumoniae to glycolipid (in words) [2]: does not bind

Molecule: IV^3 GalnLcOse4Cer [α-Galactosylparagloboside]
- Binding (ability to bind M. pneumoniae) [2]: + (2-4 μg)
- binding of M. pneumoniae to glycolipid (in words) ([2]; listed as o-galactosylparagloboside): weakly

Molecule: Lacto-N-triaosylceramide [Lacto- --N-triaosylcer]
- binding of M. pneumoniae to glycolipid (in words) [2]: weakly

Molecule: Lactoisooctaosylceramide [I-active Lacto- isooctaosylcer]
- Binding (ability to bind M. pneumoniae) [2]: - (no binding to 4 μg of lipid)

Molecule: Lactosylceramide [Lactosylcer (CDH)]
- binding of M. pneumoniae to immobilized lipid (in words) [1]: bound weakly
- Binding (ability to bind M. pneumoniae) [2]: ++ (0.5 to 2 μg)
- binding of M. pneumoniae to glycolipid (in words) [2]: weakly
- binding of M. pneumoniae to glycolipid (in words) ([2]; listed as lactosylderamide): binds to high amounts

Molecule: Lactosylceramide-II^3 -sulfate [Lactosylsulfatide]
- Binding (ability to bind M. pneumoniae) [2]: +++ (positive binding to less than 0.5 μg)
- binding of M. pneumoniae to glycolipid (in words) ([2]; listed as lactosyl sulfatide): bound
- binding of M. pneumoniae to glycolipid (in words) ([2]; listed as lactosylsulfatide): bound strongly

Molecule: Paragloboside
- binding of M. pneumoniae to immobilized lipid (in words) [1]: bound weakly
- Binding (ability to bind M. pneumoniae) [2]: + (2-4 μg)
- binding of M. pneumoniae to glycolipid (in words) [2]: weakly

Molecule: chondroitin sulfate
- inhibition of binding to sulfatide at 100 μg/ml (in words) [4]: did not inhibit binding

Molecule: colominic acid
- inhibition of binding to sulfatide at 100 μg/ml (in words) [4]: did not inhibit binding

Molecule: dextran
- inhibition of binding to sulfatide (in words) ([4]; sulfatide adsorbed on plastic): no effect

Molecule: fucoidin
- inhibition of binding to sulfatide at 100 μg/ml (in words) [4]: did not inhibit binding

Molecule: glucosylceramide [Glucosylcer (CMH)]
- Binding (ability to bind M. pneumoniae) [2]: + (2-4 μg)
- binding of M. pneumoniae to glycolipid (in words) [2]: weakly

Molecule: heparin
- inhibition of binding to sulfatide at 100 μg/ml (in words) [4]: did not inhibit binding

Molecule: hyaluronate
- inhibition of binding to sulfatide at 100 μg/ml (in words) [4]: did not inhibit binding

Molecule: sialyllactofucopentaosyl-(III)-ceramide [Sialylneolactofucopenta-osylcer]
- Binding (ability to bind M. pneumoniae) [2]: - (no binding to 4 μg of lipid)

Molecule: α2-3-sialyl-paragloboside (NeuAc) [Sialylparagloboside]
- Binding (ability to bind M. pneumoniae) [2]: - (no binding to 4 μg of lipid)
- binding of M. pneumoniae to glycolipid (in words) [2]: No binding was detected

Molecule: α2-3-sialyllactoneohexaosylceramide [Sialylneolacto-hexaoslycer]
- Binding (ability to bind M. pneumoniae) [2]: - (no binding to 4 μg of lipid)

Molecule: α-Ga121actoisooctaosylceramide [I-active Gal2 - lactoisooctaosylcer]
- Binding (ability to bind M. pneumoniae) [2]: - (no binding to 4 μg of lipid)

Molecule: β-galactosylalkylacylglycerol-I^3 -sulfate [Seminolipid]
- Binding (ability to bind M. pneumoniae) [2]: +++ (positive binding to less than 0.5 μg)
- binding of M. pneumoniae to glycolipid (in words) [2]: bound strongly; also recorded: bound
